Test results reported in US10973932B2, “Preclinical model of neonatal necrotizing enterocolitis” (University of South Florida, priority 2017, dated 2021).

B1: recombinant haptoglobin: recombinant haptoglobin, a natural chelator of free hemoglobin (protein, UniProt P00738 19-406, looked up)
Haptoglobin: VDSGNDVTDIADDGCPKPPEIAHGYVEHSVRYQCKNYYKLRTEGDGVYTLNDKKQWINKAVGDKLPECEADDGCPKPPEIAHGYVEHSVRYQCKNYYKLRTEGDGVYTLNNEKQWINKAVGDKLPECEAVCGKPKNPANPVQRILGGHLDAKGSFPWQAKMVSHHNLTTGATLINEQWLLTTAKNLFLNHSENATAKDIAPTLTLYVGKKQLVEIEKVVLHPNYSQVDIGLIKLKQKVSVNERVMPICLPSKDYAEVGRVGYVSGWGRNANFKFTDHLKYVMLPVADQDQCIRHYEGSTVPEKKTPKSPVGVQPILNEHTFCAGMSKYQEDTCYGDAGSAFAVHDLEEDTWYATGILSFDKSCAVAEYGVYVKVTSIQDWVQKTIAEN

Tests used:
[1] = test system: monocytes and macrophages; experiment: Depletion of intestinal monocytes/macrophages (flow cytometry); format: in vivo, mouse; settings: CSF1R-DTR/mCherry×Lyz2-cre pups; 5 ng/g weight; FIG. 7E
Method: Flow cytometry: Macrophages were defined by flow cytometry (BD LSRII, Franklin Lakes, N.J.). Intestinal tissue was washed with Hanks' balanced-salt solution (HBSS) containing 1 mM DTT (Sigma) to remove mucus, and then treated first with HBSS containing 1 mM EDTA (Sigma)×20 min at 37° C., and then with HBSS containing 1 mM collagenase type IV (Sigma)×2 hrs at 37° C. Cell suspension was stained using established protocols with the L-D viability dye (ThermoFisher), lineage cocktail (BioLegend, San Diego, Calif.), and antibodies against CD11b, Ly6C, F4/80, Ly6G, and Ly6B (BioLegend).
Murine intestinal macrophages: Murine intestinal macrophages were isolated by immunomagnetic separation, where these cells were first stained with phycoerythrin (PE)-conjugated anti-CD11b, anti-F4/80, and anti-Ly6C antibodies and then separated using anti-PE-conjugated ferromagnetic beads (Miltenyi Biotec, San Diego, Calif.). In some experiments, monocytes and macrophages were depleted by administering clodronate liposomes (Clodrosome, Brentwood, Tenn.). A 50 mg/kg intraperitoneal dose was used and an identical dose by enema on postnatal day 8, which depleted >80% monocytes and macrophages in 72 hrs (pre-determined optimum).
These findings were confirmed using a second, more specific approach for macrophage depletion. […]

anemic-transfused mice = experiment: RBC transfusion-associated NEC-like injury in anemic-transfused mouse pups; format: in vivo
Method: Experimental design: Animal studies were approved by the Institutional Animal Care and Use Committee. C57BL/6 mice pups were studied in 4 groups: (a) naïve control; (b) transfusion control; (c) anemic control; and (d) anemic-transfused mice. Naïve controls were maintained without intervention. Transfusion controls received an intravenous RBC transfusion (20 mL/kg into the retro-orbital venous plexus, injected in 2 aliquots on each side) on postnatal day 11 (P11). RBCs for transfusion were collected in a sterile fashion from adult FVB/NJ donors after sacrifice into citrate-phosphate-dextrose-adenine-1 (CPDA-1; Sigma, St. Louis, Mo.; 6 parts blood: 1 part CPDA-1). […] Hematocrits and RBC indices were measured at each phlebotomy and then everyday on P11-13; 5 μL blood was diluted 1:20 in Cellpak reagent (Sysmex, Kobe, Japan) and analyzed in the Sysmex XT-2000iV automated veterinary hematology analyzer. […] To measure gut barrier function, FITC-dextran was administered by gavage (10 kDa, 400 mg/kg) 4 hrs before sacrifice and measured the FITC fluorescence signal in plasma samples obtained just prior to sacrifice. To measure regional blood flow, […] fluorescence-labeled microspheres were administered intravenously (15 μm, ThermoFisher, Waltham, Mass.) 1 hr before sacrifice and the fluorescence signal was measured in tissue lysates. […]

NF-κB = NF-κB reporter RAW264.7 macrophages stimulated with 7-day-stored RBCs; format: cell-based, murine; settings: haptoglobin 10 μg/mL added with 7-day RBCs; FIG. 5H

Molecule | inflammatory F4/80mid CD115+Ly6Chi macrophages (not resident macrophages) [1] | transfusion-associated NEC-like injury (onset, severity of bowel injury) (anemic-transfused mice; CSF1R-DTR/mCherry×Lyz2-cre anemic-transfused pups, 5 ng/g weight, FIGS. 7E-7G) | inflammatory effect of 7-day-stored RBC units on macrophages (relative NF-κB activity) (NF-κB) | transfusion-associated NEC-like injury (onset, severity of bowel injury) (anemic-transfused mice; intravenous 10 μg/g body weight 1 hr before transfusion, FIGS. 5I-5J)
diphtheria toxin | selectively depleted | protective | – | –
B1 | – | – | reversed | protective
